# Assay results reported in patent US8092816B2, “Insecticidal compositions for control of general household pests” (priority 2004, dated 2012).
# Columns and labels:
# Format in all cases: in vivo
# [1] = tested on: German cockroach; test: Example 8: German cockroach mortality, bifenthrin and thiamethoxam
# Description: (§1) The following examples further illustrate the present invention, but, of course, should not be construed as in any way limiting its scope. The examples set forth certain biological data illustrating the efficacy of the compositions of the present invention in controlling general household pests. Each example embodies a separate test wherein the pests were randomly selected from a population at a random age. As a result, from example to example, the ages of the pests can be very different. This age difference potentially translates to different baselines for each example. Therefore, data should only be compared within the example and not from example to example due to the differences in age of the pests from example to example. Unless otherwise indicated, all parts, percentages, and the like are by weight. The spray chamber used in the examples was approximately 76 inches tall, 73 inches long and 31 inches deep with an adjustable shelf (approximately 22 inches deep) and a movable spray nozzle. The spray chambers were calibrated to deliver a volume of approximately 1 gallon of liquid per 1000 square feet of area at about 14 pounds per square inch of pressure. A DeVilbiss hand held sprayer (Atomizer model 152) manufactured by DeVilbiss located in Glendale Heights, Ill. was used in testing house flies and mosquitoes. The DeVilbiss was used to apply approximately 3-5 milliliters of product at about 10 pounds per square inch.
# The compositions of the present invention were tested for German cockroach activity in the following manner:
# (§2) Test compositions made up of TALSTARONE® MULTI-INSECTICIDE and a water dispersible granular of thiamethoxam (CENTRIC) in distilled water were prepared that provided appropriate rates of application of combinations of bifenthrin and thiamethoxam, as well as bifenthrin and thiamethoxam alone.
# The spray chamber was then calibrated to deliver the treatment solution at the desired volume and pressure over the desired area on the chamber shelf. Spray chamber shelf height was adjusted to approximately 18 inches from the spray tip. The shelf was then covered with aluminum foil and the center of the shelf from front-to-back and end-to-end was determined. A desired number of 4.0″ sieve circles were marked on the aluminum foil with a permanent marker. The inside of a desired number of PVC rings were coated with a petroleum jelly/mineral oil mixture (1:2 ratio). The PVC rings were place on the sieve circles. 10 male German cockroaches were placed inside each PVC ring. The sprayer was activated and the test compound was applied to each PVC ring interior. German cockroach mortality was measured.
# [2] = tested on: American cockroach; test: Example 14: American cockroach knockdown and mortality, bifenthrin and clothianidin
# Description: as §1
# (§3) The compositions of the present invention were tested for American cockroach activity in the following manner:
# Test compositions made up of TALSTARONE® MULTI-INSECTICIDE and a 16% a.i. water dispersible granular of clothianidin in distilled water were prepared that provided appropriate rates of application of combinations of bifenthrin and clothianidin, as well as bifenthrin and clothianidin alone.
# (§4) The spray chamber was then calibrated to deliver the treatment solution at the desired volume and pressure over the desired area on the chamber shelf. Spray chamber shelf height was adjusted to approximately 18 inches from the spray tip. The shelf was then covered with aluminum foil and the center of the shelf from front-to-back and end-to-end was determined. A desired number of 4.0″ sieve circles were marked on the aluminum foil with a permanent marker. The inside of a desired number of PVC rings were coated with a petroleum jelly/mineral oil mixture (1:2 ratio). The PVC rings were place on the sieve circles. 10 male American cockroaches were placed inside each PVC ring. The sprayer was activated and the test compound was applied to each PVC ring interior. American cockroach knockdown and mortality were measured.
# [3] = tested on: American cockroach; test: Example 3: American cockroach knockdown and mortality, bifenthrin and imidacloprid
# Description: as §1, §3
# Test compositions made up of TALSTARONE® MULTI-INSECTICIDE and a wettable powder of imidacloprid (MERIT) in distilled water were prepared that provided appropriate rates of application of combinations of bifenthrin and imidacloprid, as well as bifenthrin and imidacloprid alone.
# as §4
# [4] = tested on: House Fly; test: Example 12: house fly knockdown and mortality, bifenthrin and thiamethoxam (higher thiamethoxam rates)
# Description: as §1
# The compositions of the present invention were tested for house fly activity in the following manner:
# as §2
# A DeVilbiss hand held sprayer was used to deliver the treatment solution at the desired volume and pressure. The house flies to be treated were collected and placed in screened 16 oz paper cups. The hand held sprayer was activated and the test compound was applied to each paper cup interior. House fly knockdown and mortality were measured.
# [5] = tested on: American cockroach; test: Example 9: American cockroach knockdown and mortality, bifenthrin and thiamethoxam
# Description: as §1, §3, §2, §4
# [6] = rate of appln. 10 PPM (0.001% by weight)
# [7] = rate of appln. 50 PPM (0.005% by weight)
compound,measurement,setting,value
"Cc1c(COC(=O)[C@@H]2[C@H](/C=C(\Cl)C(F)(F)F)C2(C)C)cccc1-c1ccccc1 (racemic) [A, 2-methylbiphenyl-3-ylmethyl (Z)-(1RS)-cis-3-(2-chloro-3,3,3-trifluoroprop-1-enyl)-2,2-dimethylcyclopropanecarboxylate]",Mortality Rate @ 60 minutes,"[1]; 10 PPM, 0.001% by weight",8%
same,Mortality Rate @ 120 minutes,"[1]; 10 PPM, 0.001% by weight",33%
same,Mortality Rate @ 1 day,"[1]; 10 PPM, 0.001% by weight",35%
same,Mortality Rate @ 2 day,"[1]; 10 PPM, 0.001% by weight",60%
same,Mortality Rate @ 4 days,"[1]; 10 PPM, 0.001% by weight",98%
same,Mortality Rate @ 60 minutes,"[1]; 50 PPM, 0.005% by weight",15%
same,Mortality Rate @ 120 minutes,"[1]; 50 PPM, 0.005% by weight",48%
same,Mortality Rate @ 1 day,"[1]; 50 PPM, 0.005% by weight",58%
same,Mortality Rate @ 2 day,"[1]; 50 PPM, 0.005% by weight",100%
same,Mortality Rate @ 4 days,"[1]; 50 PPM, 0.005% by weight",100%
same,Knockdown Rate @ 10 minute,[2]; [6],0%
same,Knockdown Rate @ 15 minute,[2]; [6],0%
same,Knockdown Rate @ 30 minute,[2]; [6],0%
same,Mortality Rate @ 60 minute,[2]; [6],0%
same,Mortality Rate @ 120 minutes,[2]; [6],0%
same,Mortality Rate @ 4 hours,[2]; [6],0%
same,Mortality Rate @ 1 day,[2]; [6],10%
same,Mortality Rate @ 2 days,[2]; [6],30%
same,Knockdown Rate @ 10 minute,[2]; [7],5%
same,Knockdown Rate @ 15 minute,[2]; [7],10%
same,Knockdown Rate @ 30 minute,[2]; [7],5%
same,Mortality Rate @ 60 minute,[2]; [7],0%
same,Mortality Rate @ 120 minutes,[2]; [7],0%
same,Mortality Rate @ 4 hours,[2]; [7],35%
same,Mortality Rate @ 1 day,[2]; [7],40%
same,Mortality Rate @ 2 days,[2]; [7],55%
same,Knockdown Rate @ 15 minute,"[3]; 10 PPM, 0.001% by weight",0%
same,Knockdown Rate @ 30 minute,"[3]; 10 PPM, 0.001% by weight",0%
same,Mortality Rate @ 60 minutes,"[3]; 10 PPM, 0.001% by weight",0%
same,Mortality Rate @ 120 minutes,"[3]; 10 PPM, 0.001% by weight",0%
same,Mortality Rate @ 4 hours,"[3]; 10 PPM, 0.001% by weight",5%
same,Mortality Rate @ 1 day,"[3]; 10 PPM, 0.001% by weight",15%
same,Mortality Rate @ 2 days,"[3]; 10 PPM, 0.001% by weight",25%
same,Knockdown Rate @ 15 minute,"[3]; 50 PPM, 0.005% by weight",0%
same,Knockdown Rate @ 30 minute,"[3]; 50 PPM, 0.005% by weight",0%
same,Mortality Rate @ 60 minutes,"[3]; 50 PPM, 0.005% by weight",5%
same,Mortality Rate @ 120 minutes,"[3]; 50 PPM, 0.005% by weight",5%
same,Mortality Rate @ 4 hours,"[3]; 50 PPM, 0.005% by weight",10%
same,Mortality Rate @ 1 day,"[3]; 50 PPM, 0.005% by weight",65%
same,Mortality Rate @ 2 days,"[3]; 50 PPM, 0.005% by weight",70%
same,Knockdown Rate @ 15 minute,"[4]; 10 PPM, 0.001% by weight",0%
same,Knockdown Rate @ 30 minute,"[4]; 10 PPM, 0.001% by weight",0%
same,Knockdown Rate @ 45 minutes,"[4]; 10 PPM, 0.001% by weight",17%
same,Knockdown Rate @ 60 minutes,"[4]; 10 PPM, 0.001% by weight",40%
same,Knockdown Rate @ 120 minutes,"[4]; 10 PPM, 0.001% by weight",63%
same,Knockdown Rate @ 4 hours,"[4]; 10 PPM, 0.001% by weight",50%
same,Mortality Rate @ 1 day,"[4]; 10 PPM, 0.001% by weight",30%
same,Knockdown Rate @ 15 minute,"[4]; 50 PPM, 0.005% by weight",0%
same,Knockdown Rate @ 30 minute,"[4]; 50 PPM, 0.005% by weight",78%
same,Knockdown Rate @ 45 minutes,"[4]; 50 PPM, 0.005% by weight",97%
same,Knockdown Rate @ 60 minutes,"[4]; 50 PPM, 0.005% by weight",97%
same,Knockdown Rate @ 120 minutes,"[4]; 50 PPM, 0.005% by weight",97%
same,Knockdown Rate @ 4 hours,"[4]; 50 PPM, 0.005% by weight",97%
same,Mortality Rate @ 1 day,"[4]; 50 PPM, 0.005% by weight",97%
same,Knockdown Rate @ 15 minute,"[5]; 10 PPM, 0.001% by weight",0%
same,Knockdown Rate @ 30 minute,"[5]; 10 PPM, 0.001% by weight",0%
same,Mortality Rate @ 60 minutes,"[5]; 10 PPM, 0.001% by weight",0%
same,Mortality Rate @ 120 minutes,"[5]; 10 PPM, 0.001% by weight",0%
same,Mortality Rate @ 4 hours,"[5]; 10 PPM, 0.001% by weight",0%
same,Mortality Rate @ 1 day,"[5]; 10 PPM, 0.001% by weight",5%
same,Knockdown Rate @ 15 minute,"[5]; 50 PPM, 0.005% by weight",0%
same,Knockdown Rate @ 30 minute,"[5]; 50 PPM, 0.005% by weight",0%
same,Mortality Rate @ 60 minutes,"[5]; 50 PPM, 0.005% by weight",0%
same,Mortality Rate @ 120 minutes,"[5]; 50 PPM, 0.005% by weight",0%
same,Mortality Rate @ 4 hours,"[5]; 50 PPM, 0.005% by weight",0%
same,Mortality Rate @ 1 day,"[5]; 50 PPM, 0.005% by weight",30%
